Source: PMC10020958, “2-(4-Fluorophenyl)-1H-benzo[d]imidazole as a Promising Template for the Development of Metabolically Robust, α1β2γ2GABA-A Receptor-Positive Allosteric Modulators” (ACS Chemical Neuroscience, 2023)

Experiments:
[1] = target: GABA-A receptor (benzodiazepine site, α1/γ2 interface); test: Radioligand binding assay for the GABA-A receptor ([3H]-flunitrazepam displacement, rat brain homogenate); conditions: pKi = -log Ki, n.a. = no affinity
[2] = target: T1, α1β2γ2-GABA-A receptors stably expressed in HEK293 cells (Homo sapiens, UniProt P14867+P18507); test: Electrophysiological studies, automated patch clamp (QPatch16X), positive allosteric modulation of GABA-induced Cl- currents; format: cell-based; conditions: compound 1 μM co-applied with 10 μM GABA; GABA alone = 100%; mean ± SEM
T1 construct: expressed in transfected cells
Procedure: Given that ligands binding within the α1/γ2 interface act as PAMs, we selected the most promising 1H-benzo[d]imidazoles (9, 15, 16, 23, and 29) for electrophysiological studies using automated patch clamp recordings (QPatch16X, Sophion). We expected that 1H-benzo[d]imidazoles would potentiate GABA-induced Cl^– currents rather than inducing ion passage alone.
Electrophysiology studies were performed using the QPatch16X automatic patch clamp platform (Sophion Biosciences) and HEK293 cells, stably expressing the α1β2γ2 subunits of the human GABA-A receptor. Prior to the assay recordings, the cells were transferred from the culture flask through a TrypLE Express solution (LifeTechnologies) and resuspended in serum-free media. The cells were placed in the lidless microtube, located onboard the automated electrophysiology instrument. The cells were then automatically relocated to a built-in centrifuge, spun down, and washed in Ringer’s extracellular solution. The cells were transferred to the pipetting wells of a single-use 16-channel planar patch chip plate (QPlate 16X), and gigaseals were formed upon implementation of a combined suction/voltage protocol. Subsequent suction induced whole-cell configuration. The chloride currents passed via the GABA-A receptor were recorded for 7 s after single addition of a tested molecule. Through whole-cell recording, the holding potential was set to −90 mV. The assay was performed at room temperature. The extracellular solution was composed of the following ingredients: consisted of 2 mM […], 145 mM NaCl, 10 mM HEPES, CaCl2, 1 mM MgCl2, 10 mM glucose (pH 7.4, 300 mOsm), and intracellular solution contained 140 mM CsF, 1 mM EGTA, 5 mM CsOH, 10 mM HEPES, and 20 mMNaCl (pH 7.2, 320 mOsm). The screening assays were established in the instrument software by sequential application of 10 μM GABA (reference agonist AG1), 1 μM examined molecule compounds, and compounds co-administered with 10 μM GABA (T2); second addition of 10 μM GABA (AG2); 10 μM bicuculline (reference antagonist) along with 10 μM GABA (ATG). The intermission among the addition of particular molecules was 60 s. In a typical procedure, 5 μL of ligand was added to the cells, followed by 3 s of washout with an extracellular solution (two times […]). For the allosteric modulator/antagonist mode, the cells were preincubated with the tested compound alone for 50 s, followed by the addition of the reference agonist. The data obtained were processed using QPatch Assay Software (v5.0, Sophion Biosciences) and are represented as the mean of at least three independent experiments performed on separate cells. The validation criteria for a single test were current amplitude evoked by adding GABA greater than 500 pA and a change between cells’ response to GABA applications (AG1 and AG2) not greater than 25%. The relative compound efficiency was analyzed as the baseline-corrected ratio of maximal current amplitudes induced by the addition of tested compounds and reference agonist (T1-ATG/AG1-ATG or T2-ATG/AG1-ATG). The obtained raw current recordings were normalized and represented as % of the current amplitude induced by a reference agonist (GABA = 100%) using the QPatch Assay Software (v5.0, Sophion Biosciences).[24]

T1 sequence (P14867 28-456): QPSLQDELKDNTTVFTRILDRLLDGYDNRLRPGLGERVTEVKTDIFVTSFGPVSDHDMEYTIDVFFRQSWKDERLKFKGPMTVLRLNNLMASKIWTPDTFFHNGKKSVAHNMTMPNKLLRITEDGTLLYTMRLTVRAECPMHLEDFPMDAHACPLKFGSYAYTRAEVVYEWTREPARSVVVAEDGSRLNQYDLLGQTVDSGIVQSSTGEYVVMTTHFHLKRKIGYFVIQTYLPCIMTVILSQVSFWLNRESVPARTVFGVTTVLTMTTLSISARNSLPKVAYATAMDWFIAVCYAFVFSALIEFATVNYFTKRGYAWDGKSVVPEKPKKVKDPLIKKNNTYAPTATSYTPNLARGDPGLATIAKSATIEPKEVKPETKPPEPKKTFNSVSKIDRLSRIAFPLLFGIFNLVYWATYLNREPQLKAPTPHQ
T1 sequence (P47870 25-512 partner limits assumed): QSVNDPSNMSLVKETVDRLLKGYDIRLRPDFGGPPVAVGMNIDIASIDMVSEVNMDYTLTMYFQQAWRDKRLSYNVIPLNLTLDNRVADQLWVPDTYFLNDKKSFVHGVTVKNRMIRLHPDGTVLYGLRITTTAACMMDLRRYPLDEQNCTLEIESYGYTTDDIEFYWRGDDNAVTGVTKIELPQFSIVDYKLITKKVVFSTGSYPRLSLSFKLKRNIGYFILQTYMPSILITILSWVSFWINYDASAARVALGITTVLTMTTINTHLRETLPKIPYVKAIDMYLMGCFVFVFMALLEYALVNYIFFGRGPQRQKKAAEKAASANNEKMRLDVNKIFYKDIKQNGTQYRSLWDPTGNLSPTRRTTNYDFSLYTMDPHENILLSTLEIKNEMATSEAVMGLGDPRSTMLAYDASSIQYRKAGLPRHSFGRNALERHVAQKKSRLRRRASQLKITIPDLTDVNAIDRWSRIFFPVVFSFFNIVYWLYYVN
T1 sequence (P18507 40-475): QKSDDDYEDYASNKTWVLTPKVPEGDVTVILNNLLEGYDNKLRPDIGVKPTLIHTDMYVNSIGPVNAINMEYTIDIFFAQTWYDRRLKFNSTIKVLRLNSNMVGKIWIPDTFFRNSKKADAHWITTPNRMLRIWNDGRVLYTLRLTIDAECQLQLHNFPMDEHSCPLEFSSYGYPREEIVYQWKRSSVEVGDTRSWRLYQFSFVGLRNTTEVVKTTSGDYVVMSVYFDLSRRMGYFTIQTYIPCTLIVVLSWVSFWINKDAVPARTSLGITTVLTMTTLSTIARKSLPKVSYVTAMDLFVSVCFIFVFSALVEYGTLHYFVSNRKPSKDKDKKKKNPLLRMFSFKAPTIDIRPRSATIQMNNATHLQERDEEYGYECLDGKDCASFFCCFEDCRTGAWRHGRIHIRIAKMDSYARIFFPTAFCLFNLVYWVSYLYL

| SMILES | pKi GABA-A [1] | % of 10 μM GABA response [2] | melting point [°C] |
| --- | --- | --- | --- |
| CN(C)C(=O)Cn1c(-c2ccc(F)cc2)nc2ccccc21 [Compound 15, 2-(2-(4-Fluorophenyl)-1H-benzo[d]imidazole-1-yl)-N,N-dimethylacetamide] | 5.39 | 105 ± 2,5% | 182.3 to 183.1 |
| Cc1ccc(-c2nc3ccc(C)cn3c2CC(=O)N(C)C)cc1 [zolpidem, reference compound] | 7.39 | 212 ± 8,5% | – |
| Cc1ccc2c(c1)nc(-c1ccc(F)cc1)n2CC(=O)N1CCCC1 [Compound 10, 2-(2-(4-Fluorophenyl)-5-methyl-1H-benzo[d]imidazole-1-yl)-1-(pyrrolidin-1-yl)ethan-1-one] | no affinity | – | 208.7 to 210.2 |
| Cc1ccc2c(c1)nc(-c1ccc(F)cc1)n2CC(=O)N1CCSCC1 [Compound 12, 2-(2-(4-Fluorophenyl)-5-methyl-1H-benzo[d]imidazole-1-yl)-1-thiomorpholinoethan-1-one] | no affinity | – | 199 to 200.9 |
| O=C(Cn1c(-c2ccc(F)cc2)nc2ccccc21)Nc1ccccc1F [Compound 27, N-(2-Fluorophenyl)-2-(2-(4-fluorophenyl)-1H-benzo[d]imidazole-1-yl)acetamide] | – | – | 212.1 to 212.8 |
| COc1ccccc1NC(=O)Cn1c(-c2ccc(F)cc2)nc2ccccc21 [Compound 24, 2-(2-(4-Fluorophenyl)-1H-benzo[d]imidazole-1-yl)-N-(2-methoxyphenyl)acetamide] | loss of affinity | – | 206.9 to 207.2 |
| CN1CCN(C(=O)Cn2c(-c3ccc(F)cc3)nc3ccccc32)CC1 [Compound 18, 2-(2-(4-Fluorophenyl)-1H-benzo[d]imidazole-1-yl)-1-(4-methylpiperazin-1-yl)ethan-1-one] | – | – | 172.3 to 173.1 |
| CC1CN(C(=O)Cn2c(-c3ccc(F)cc3)nc3ccccc32)CC(C)N1 (stereo not drawn) [Compound 19, 1-(3,5-Dimethylpiperazin-1-yl)-2-(2-(4-fluorophenyl)-1H-benzo[d]imidazole-1-yl)ethan-1-one] | – | – | 109.6 to 112.4 |
| COc1cccc(NC(=O)Cn2c(-c3ccc(F)cc3)nc3ccccc32)c1 [Compound 25, 2-(2-(4-Fluorophenyl)-1H-benzo[d]imidazole-1-yl)-N-(3-methoxyphenyl)acetamide] | 5.02 | – | 149.1 to 149.9 |
| Cc1ccc2nc(-c3ccc(F)cc3)n(CC(=O)N3CCSCC3)c2c1 [Compound 11, 2-(2-(4-Fluorophenyl)-6-methyl-1H-benzo[d]imidazole-1-yl)-1-thiomorpholinoethan-1-one] | 5.1 | – | 205.3 to 207.1 |
| O=C(Cn1c(-c2ccc(F)cc2)nc2ccccc21)N1CCOCC1 [Compound 20, 2-(2-(4-Fluorophenyl)-1H-benzo[d]imidazole-1-yl)-1-morpholinoethan-1-one] | loss of activity | – | – |
| O=C(Cn1c(-c2ccc(F)cc2)nc2ccccc21)N1CCNCC1 [Compound 17, 2-(2-(4-Fluorophenyl)-1H-benzo[d]imidazole-1-yl)-1-(piperazin-1-yl)ethan-1-one] | loss of activity | – | 232.8 to 234.1 |
| O=C(Cn1c(-c2ccc(F)cc2)nc2ccccc21)N1CCSCC1 [Compound 21, 2-(2-(4-Fluorophenyl)-1H-benzo[d]imidazole-1-yl)-1-thiomorpholinoethan-1-one] | – | – | 205.3 to 205.8 |
| O=C(Cn1c(-c2ccc(F)cc2)nc2ccccc21)Nc1cccc(F)c1 [Compound 28, N-(3-Fluorophenyl)-2-(2-(4-fluorophenyl)-1H-benzo[d]imidazole-1-yl)acetamide] | – | – | 182.3 to 182.7 |
| COc1ccc(NC(=O)Cn2c(-c3ccc(F)cc3)nc3ccccc32)cc1 [Compound 26, 2-(2-(4-Fluorophenyl)-1H-benzo[d]imidazole-1-yl)-N-(4-methoxyphenyl)acetamide] | loss of affinity | – | 255.1 to 255.7 |
| O=C(Cn1c(-c2ccc(F)cc2)nc2ccccc21)Nc1ccccc1 [Compound 22, 2-(2-(4-Fluorophenyl)-1H-benzo[d]imidazole-1-yl)-N-phenylacetamide] | – | – | 236.7 to 239 |
| O=C(Cn1c(-c2ccc(F)cc2)nc2ccccc21)N1CCCC1 [Compound 16, 2-(2-(4-Fluorophenyl)-1H-benzo[d]imidazole-1-yl)-1-(pyrrolidin-1-yl)ethan-1-one] | 5.53 | 124 ± 5,2% | 212.9 to 214 |
| O=C(Cn1c(-c2ccc(F)cc2)nc2ccccc21)Nc1ccc(F)cc1 [Compound 29, N-(4-Fluorophenyl)-2-(2-(4-fluorophenyl)-1H-benzo[d]imidazole-1-yl)acetamide] | 5.74 | 112 ± 2,8% | 248 to 248.2 |
| Cc1ccc2nc(-c3ccc(F)cc3)n(CC(=O)Nc3ccccc3)c2c1 [Compound 13, 2-(2-(4-Fluorophenyl)-6-methyl-1H-benzo[d]imidazole-1-yl)-N-phenylacetamide] | 5.53 | – | 202.5 to 205 |
| Cc1ccc2c(c1)nc(-c1ccc(F)cc1)n2CC(=O)Nc1ccccc1 [Compound 14, 2-(2-(4-Fluorophenyl)-5-methyl-1H-benzo[d]imidazole-1-yl)-N-phenylacetamide] | no affinity | – | 207.3 to 209.2 |
